Measurements from US20080108603A1, “COMBINATION THERAPY FOR THE TREATMENT OF PAIN” (priority 2006, published 2008).
Entries after “also recorded” stand apart in the source; their conditions may differ.

Columns and labels:
adult male rats = test: Postincisional hypersensitivity model of postoperative pain (paw incision, withdrawal threshold to von Frey filaments); assay type: in vivo, rat; conditions: intrathecal (i.t.) single drug; for anti-hypersensitivity effect (mechanical hypersensitivity), single drug: 24 h after paw incision surgery, 210 min observation
Experimental: Animal preparation: Following Animal Care and Use Committee approval, an intrathecal (i.t.) catheter with tip in the lumbar space is inserted as previously described in adult male rats weighing 250 g (Yaksh and Rudy, Physiol Behav. 1976, 7, 1032-1036). One week following the insertion of the i.t. catheter, paw incision surgery is performed as previously described (Brennan et al., Pain 1996, 64, 493-501). Briefly, animals are anesthetized with halothane, and a 1-cm long incision is made in the plantar aspect of the left hind paw starting 0.5 cm from the edge of the heel toward the toe after sterile preparation with 70% ethanol. The plantaris muscle is elevated and incised longitudinally. The wound is closed with 2 mattress sutures of 5.0 silk. Subsequently, withdrawal threshold to von Frey filaments is determined one day after surgery (Chaplanet al., J. Neurosci. Methods, 1994, 53, 55-63). For all testing but pilot dose ranging studies, investigators are blinded to study drug administration. A cut off value of 22 g is used.
Experimental Design: Twenty-four hours after paw incision surgery, single drugs and their combinations are studied: T-62, morphine and NBQX.
Single drug injection: For single drug administration, a volume containing 5 μL drug is used, followed by 10 μL of saline. The anti-hypersensitivity effects for single drugs at three doses with logarithmic spacing are studied over a 210 min observation period with testing at 30 min interval. Dose response curves are first constructed, and ED40 values for single drugs are then determined at the time of peak effect.
Drug interaction: For the combination of T-62 with morphine and NBQX, two injections are performed since the time of peak effect for morphine and NBQX is 30 min earlier than that of T-62 (T-62 is injected 30 min before drug injections). Paw withdrawal thresholds are determined before surgery, before drug injection, and 30, 60, 90, 120, 150, 180, and 210 min after the second drug injection. In addition, a fixed fractional dose ratio of 1:1 (w:w) is used for the combination of T-62 with morphine and NBQX. The dose response curves are then constructed for the combined drugs, and the ED40 values of the combined drugs are calculated at the time point of peak effect. Subsequently, isobolograms are constructed based on the ED40 values from single and combined drug administration.
Materials: T-62 may be obtained from King Pharmaceuticals (Cary, N.C.). T-62 is dissolved in saline with 20% DMSO. Morphine may be purchased from Astra Pharmaceutical Products, Inc. (Westborough, Mass.). NBQX and the remaining chemicals may be purchased from Sigma Chemical Co. (St. Louis, Mo.). Saline is used as vehicle for morphine and NBQX.
Data analysis: Data are presented as mean ±S.E. Withdrawal threshold data are analyzed by two-way analysis of variance followed by Fisher's LSD test. P<0.05 is considered significant. Isobolograms are statistically analyzed by student T test.

male Sprague-Dawley rats = test: Neuropathic pain model (Chung model, spinal nerve ligation, withdrawal threshold to von Frey filaments); assay type: in vivo, rat; conditions: for anti-allodynic effect (withdrawal threshold): single intrathecal injection, at least 4 weeks after spinal nerve ligation, up to 20 hr
From the text: Spinal Nerve Ligation: After Animal Care and Use Committee approval, male Sprague-Dawley rats (Harlan, Indianapolis, Ind., USA) weighing 180-200 g undergo anesthesia as previously described by Kim and Chung (Pain 1992, 50, 355-363). Briefly, under general anesthesia with inhalational halothane, the left L5 and L6 spinal nerves are identified through a small laminotomy and tightly ligated. Approximately one week later, an intrathecal catheter is placed under general anesthesia by insertion under direct vision of a polyethylene catheter through a small slit in the dura at the cisterna magnum, and advanced 8.5 cm such that the catheter tip resides in the lower lumbar intrathecal space. Animals are studied approximately one week later. Ligation of the lumbar spinal nerves results in a primarily unilateral increase in the sensitivity to light touch on the operated side. Sensitivity is assessed via application of calibrated von Frey filaments. The withdrawal threshold is determined using an up down method as previously described by Chaplan et al. (J. Neurosci. Methods 1994, 53, 55-63).
Experimental Design: Animals receive, at least 4 weeks after spinal nerve ligation surgery, and at least 1 week after intrathecal catheter insertion, single injections of vehicle (β-cyclodextrin) or the drug substance, using a randomized and blinded protocol. Withdrawal thresholds are determined at intervals for up to 20 hr after injection.

adenosine A1 receptors = molecular target: T1, adenosine A1 receptors (Rattus norvegicus, UniProt P25099); conditions: from Li et al., Pan et al., U.S. Pat. No. 6,248,774 and 6,489,356; cited from earlier work
T1 sequence (P25099 1-326): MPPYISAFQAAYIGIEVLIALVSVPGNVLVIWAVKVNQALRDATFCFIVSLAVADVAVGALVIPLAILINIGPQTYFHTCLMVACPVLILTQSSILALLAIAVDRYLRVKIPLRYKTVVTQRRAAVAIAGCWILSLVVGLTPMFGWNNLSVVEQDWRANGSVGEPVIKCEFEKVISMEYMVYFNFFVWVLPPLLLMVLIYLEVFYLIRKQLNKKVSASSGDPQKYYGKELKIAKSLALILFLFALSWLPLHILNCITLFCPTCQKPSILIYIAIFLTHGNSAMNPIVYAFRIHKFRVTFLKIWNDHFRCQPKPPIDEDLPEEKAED

| Compound | time of peak effect after injection (adult male rats) | anti-hypersensitivity effect (mechanical hypersensitivity), single drug (adult male rats) | anti-allodynic effect (withdrawal threshold) (male Sprague-Dawley rats) | effect on inflammatory and neuropathic pain (adenosine A1 receptors) | relative potency among the three enhancers (male Sprague-Dawley rats; Chung model of chronic neuropathic pain, FIG. 8) |
| --- | --- | --- | --- | --- | --- |
| NS(=O)(=O)c1cccc2c1c([N+](=O)[O-])cc1nc(O)c(O)nc12 [NBQX, 2,3-dihydroxy-6-nitro-7-sulfamoylbenzo(f)quinoxaline] | 30 min | reduces the mechanical hypersensitivity in a time and dose dependent manner |  |  |  |
| CN1CC[C@]23c4c5ccc(O)c4O[C@H]2[C@@H](O)C=C[C@H]3[C@H]1C5 [Morphine, morphine] | 30 min | reduces mechanical hypersensitivity in a time and dose dependent manner |  |  |  |
| Nc1sc2c(c1C(=O)c1ccc(Cl)cc1)CCCC2 [T-62, (2-amino-4,5,6,7-tetrahydrobenzo[b]thiophen-3-yl)(4-chlorophenyl)methanone] |  | modest effect; also recorded: reduced mechanical hypersensitivity in a time dependent manner | dose-dependent anti-allodynic effects | reduce inflammatory and neuropathic pain |  |
| Nc1sc2c(c1C(=O)c1cccc3ccccc13)CCC2 [formula (Ic)] |  |  | dose-dependent anti-allodynic effects |  | most potent |
| Nc1sc2c(c1C(=O)c1ccccc1)CCS2 [formula (Ib)] |  |  | dose-dependent anti-allodynic effects |  |  |
